Read-outs that look alike come from different tables or passages of the source.
Columns and labels:
[1] = tested on: phospho-MEK and phospho-ERK in A375 xenograft; test: A375 xenograft single dose pharmacodynamic study; type: in vivo, rat; conditions: two hours post dose, Western Blot
Method: Briefly, 10×10^6 cells (A375) or 5×10^6 cells (HCT-116) in a 1:1 medium and matrigel mix (0.2 mL total volume) are implanted by subcutaneous injection in the hind leg of nude female rats (NIH model No. NIHRNU-M from Taconic). A total of 8 rats in each group are used for the efficacy study, and a total of 3-4 rats in each group are used for a pharmacodynamic study. The Eli Lilly and Company Animal Care and Use Committee approved all the experimental protocols. […] Tumor growth and body weight are monitored over time to evaluate activity and signs of toxicity. Bidimensional measurements of tumors are performed twice a week and tumor volumes are calculated based on mid-axis length and mid-axis width. Tumor volume data are transformed to a log scale to equalize variance across time and treatment groups. The log volume data are analyzed with a two-way repeated measures analysis of variance by time and treatment using the MIXED® procedures in SAS® software (version 8.2). The correlation model for the repeated measures is spatial power. Treated groups are compared to the control group at each time point. The MIXED® procedure is also used separately for each treatment group to calculate adjusted means and standard errors at each time point. […]

Caki-1 = test: CellTiter-Glo proliferation and viability assay; type: cell-based; conditions: Homo sapiens
CCRF-CEM = test: CellTiter-Glo proliferation and viability assay; type: cell-based; conditions: Homo sapiens, read-out: Abs IC50
CaOV-3 = test: CellTiter-Glo proliferation and viability assay; type: cell-based; conditions: Homo sapiens
Colo-205 = test: CellTiter-Glo proliferation and viability assay; type: cell-based; conditions: Homo sapiens, Colo-205, B-Raf V600E, colon
From the text: (§1) B-Raf mutations, particularly B-Raf V600E in human cancer are often observed in human malignancies including melanoma, colorectal, lung, and ovarian cancers. This mutation in B-Raf may lead to constitutive kinase activity and malignant transformation.

WM-266-4 = test: CellTiter-Glo proliferation and viability assay; type: cell-based; conditions: Homo sapiens, WM-266-4, B-Raf V600E, melanoma
From the text: as §1

Sk-MeI-2 cells = test: CellTiter-Blue SK-MeI-2 cell proliferation assay; type: cell-based; conditions: Homo sapiens; SK-Mel-2, CellTiter-Blue; read-out: Cell Proliferation Inhibition IC50
Method: (§2) Sk-MeI-2 cells (catalog #HTB-68) are obtained from the American Type Culture Collection (ATCC, Manassas, Va.). Briefly, cells are grown in MEM supplemented with 10% characterized fetal bovine serum (Invitrogen, Carlsbad, Calif.), 1 mM sodium pyruvate, 0.1 mM non-essential amino acids, and 1% Penicillin/Streptomycin/L-Glutamine at 37 degrees Celsius, 5% CO2, and 95% humidity. Cells are allowed to expand until reaching 70-95% confluency at which point they are subcultured or harvested for assay use. A serial dilution of test compound is dispensed into a 384-well black clear bottom plate in triplicate. One thousand two-hundred fifty cells are added per well in 50 μL complete growth medium in the 384-well plate. Plates are incubated for 67 hours at 37 degrees Celsius, 5% CO2, and 95% humidity. At the end of the incubation period, 10 μL of a 440 μM solution of resazurin (Sigma, St. Louis, Mo.) in PBS is added to each well of the plate and plates are incubated for an additional 5 hours at 37 degrees Celsius, 5% CO2, and 95% humidity. Plates are read on a Synergy2 reader (Biotek, Winooski, Vt.) using an excitation of 540 nm and an emission of 600 nm. Data is analyzed using Prism software (Graphpad, San Diego, Calif.) to calculate IC50 values.
(§3) The A375, HT-29, and Colo-205 cells (ATCC) harbor a V600E mutation.

MDA-MB-436 = test: CellTiter-Glo proliferation and viability assay; type: cell-based; conditions: Homo sapiens
BT-474 = test: CellTiter-Glo proliferation and viability assay; type: cell-based; conditions: Homo sapiens
C-Raf (WT) = C-Raf (WT) (Homo sapiens, UniProt P04049); test: biochemical
Sequence of C-Raf (WT) (P04049 whole entry): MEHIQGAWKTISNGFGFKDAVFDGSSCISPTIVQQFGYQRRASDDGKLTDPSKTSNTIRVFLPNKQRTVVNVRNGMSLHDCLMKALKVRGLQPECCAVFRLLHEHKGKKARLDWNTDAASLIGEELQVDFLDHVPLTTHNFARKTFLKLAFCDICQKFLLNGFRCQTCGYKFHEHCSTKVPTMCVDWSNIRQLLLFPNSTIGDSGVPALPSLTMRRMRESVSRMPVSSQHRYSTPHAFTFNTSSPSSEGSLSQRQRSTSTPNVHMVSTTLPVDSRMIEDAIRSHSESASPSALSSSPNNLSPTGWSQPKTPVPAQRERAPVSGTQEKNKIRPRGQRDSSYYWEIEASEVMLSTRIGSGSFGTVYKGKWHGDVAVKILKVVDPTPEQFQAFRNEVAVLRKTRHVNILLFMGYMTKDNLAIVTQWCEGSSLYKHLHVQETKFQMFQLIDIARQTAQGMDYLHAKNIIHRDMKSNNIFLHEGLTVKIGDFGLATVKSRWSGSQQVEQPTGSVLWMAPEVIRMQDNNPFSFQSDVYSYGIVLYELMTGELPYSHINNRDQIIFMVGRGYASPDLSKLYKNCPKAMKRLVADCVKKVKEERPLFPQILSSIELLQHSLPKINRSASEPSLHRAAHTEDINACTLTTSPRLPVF

P30-OHK = test: CellTiter-Glo proliferation and viability assay; type: cell-based; conditions: Homo sapiens, read-out: Abs IC50
NCI-H2228 = test: CellTiter-Glo proliferation and viability assay; type: cell-based; conditions: Homo sapiens
C8166 = test: CellTiter-Glo proliferation and viability assay; type: cell-based; conditions: Homo sapiens
GA-10-Clone-4 = test: CellTiter-Glo proliferation and viability assay; type: cell-based; conditions: Homo sapiens
HCT-116 cells = test: CellTiter-Blue HCT-116 cell proliferation assay; type: cell-based; conditions: Homo sapiens; HCT-116, CellTiter-Blue; read-out: Cell Proliferation Inhibition IC50
Method: as §2, with “HCT-116” for “Sk-MeI-2”, “#CCL-247)” for “#HTB-68)”, “McCoy's 5A” for “MEM”, “Calif.),” for “Calif.), 1 mM sodium pyruvate, 0.1 mM non-essential amino acids,”, “75-90%” for “70-95%”, “Six hundred twenty-five” for “One thousand two-hundred fifty”
as §3

With `CNc1ncc2cc(-c3cc(NC(=O)NCCC(C)(C)C)c(F)cc3C)c(C)nc2n1` [Example 1, 1-(3,3-Dimethylbutyl)-3-(2-fluoro-4-methyl-5-(7-methyl-2-(methylamino)pyrido[2,3-d]pyrimidin-6-yl)phenyl)urea] the “phospho-MEK and phospho-ERK activities, PD effect” value ([1]; single dose 25 mg/kg) was “almost completely eliminated”, the “phospho-MEK and phospho-ERK, PD effect” value ([1]; single dose 3.125 to 50 mg/kg) was “inhibition was observed in all dose groups” and the IC50 (Caki-1; read-out: Abs IC50) was 2.91 nM. It also gave an IC50 (Caki-1; read-out: Rel IC50) of 2.03 nM, an IC50 (CCRF-CEM) of 1.5 nM and an IC50 (CaOV-3; read-out: Abs IC50) of 9.58 nM. The IC50 (CaOV-3; read-out: Rel IC50) was 5.32 nM, the IC50 (Colo-205) was 27 nM and the IC50 (WM-266-4) was 52.9 nM. For the same compound, the IC50 (Sk-MeI-2 cells) was 158 nM, the IC50 (MDA-MB-436; read-out: Abs IC50) was > 20 nM and the IC50 (MDA-MB-436; read-out: Rel IC50) was 0.26 nM. It also gave an IC50 (BT-474; read-out: Abs IC50) of 11.6 nM, an IC50 (BT-474; read-out: Rel IC50) of 10.9 nM and an inhibition at 0.001 µM (C-Raf (WT)) of -11%. It also gave an inhibition at 0.01 µM (C-Raf (WT)) of 23.9%, an inhibition at 0.1 µM (C-Raf (WT)) of 50.8% and an inhibition at 1 µM (C-Raf (WT)) of 79.3%. For the same compound, the IC50 (P30-OHK) was 1.43 nM, the IC50 (NCI-H2228; read-out: Abs IC50) was > 20 nM and the IC50 (NCI-H2228; read-out: Rel IC50) was 1.18 nM. The IC50 (C8166; read-out: Abs IC50) was 1.09 nM, the IC50 (C8166; read-out: Rel IC50) was 0.56 nM and the IC50 (GA-10-Clone-4; read-out: Abs IC50) was 0.2 nM. It also gave an IC50 (GA-10-Clone-4; read-out: Rel IC50) of 0.25 nM and an IC50 (HCT-116 cells) of 224 nM.

— patent US8741911B2, “Raf inhibitor compounds” (Eli Lilly and Company, priority 2012, dated 2014)
